According to ChEMBL document CHEMBL1250430, “Synthesis, semipreparative HPLC separation, biological evaluation, and 3D-QSAR of hydrazothiazole derivatives as human monoamine oxidase B inhibitors” (Bioorg Med Chem, 2010):
“And” between values parts separate entries of the source, which are not always exact repeats. Identical values can stand only once.

Legend:
[1] = molecular target: T1, Amine oxidase [flavin-containing] A (Homo sapiens, UniProt P21397); assay: biochemical
T1 sequence (P21397 whole entry): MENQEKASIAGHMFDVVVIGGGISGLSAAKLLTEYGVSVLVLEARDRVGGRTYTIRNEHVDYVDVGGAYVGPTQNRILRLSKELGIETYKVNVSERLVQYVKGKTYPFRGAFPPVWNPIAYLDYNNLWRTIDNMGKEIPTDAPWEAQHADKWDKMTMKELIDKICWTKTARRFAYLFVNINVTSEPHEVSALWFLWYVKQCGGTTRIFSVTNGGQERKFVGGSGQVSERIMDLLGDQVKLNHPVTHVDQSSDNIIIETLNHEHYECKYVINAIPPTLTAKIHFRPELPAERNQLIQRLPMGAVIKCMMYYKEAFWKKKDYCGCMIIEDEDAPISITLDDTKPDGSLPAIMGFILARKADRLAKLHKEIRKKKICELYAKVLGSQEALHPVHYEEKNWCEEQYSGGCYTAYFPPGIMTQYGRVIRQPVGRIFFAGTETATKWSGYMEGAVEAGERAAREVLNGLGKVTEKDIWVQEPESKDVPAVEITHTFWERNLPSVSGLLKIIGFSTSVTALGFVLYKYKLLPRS
Description: (§1) Inhibition of human recombinant MAOA expressed in baculovirus infected BTI-TN-5B1-4 insect cells assessed as hydrogen peroxide production from p-tyramine by amplex red assay

[2] = molecular target: T1, Amine oxidase [flavin-containing] A; details: bti-tn-5b1-4
Description: as §1

IC50 [1] | IC50 [2] [µM] | SMILES
7.23 µM |  | Fc1ccc(-c2csc(NN=C3CCCCCC3)n2)c(F)c1
17.9 µM |  | O=[N+]([O-])c1ccc(-c2csc(NN=C3CCCCCC3)n2)cc1
59.3 µM |  | Clc1ccc(-c2csc(NN=C3CCCCCC3)n2)c(Cl)c1
 | 81.5 | CC1CCC(=NNc2nc(-c3ccc(Cl)cc3Cl)cs2)CC1 (centres undefined)
2.29 µM and 2.32 µM |  | Fc1ccc(-c2csc(NN=C3CCCC3)n2)c(F)c1
54.5 µM |  | Clc1ccc(-c2csc(NN=C3CCCC3)n2)c(Cl)c1
0.344 µM |  | O=[N+]([O-])c1ccc(-c2csc(NN=C3CCCC3)n2)cc1
0.644 µM |  | N#Cc1ccc(-c2csc(NN=C3CCCC3)n2)cc1
45.8 µM |  | Fc1ccc(-c2csc(NN=C3CCCCC3)n2)c(F)c1
